Reference: paper PMC11456916, “A screen for cell envelope stress uncovers an inhibitor of prolipoprotein diacylglyceryl transferase, Lgt, in Escherichiacoli” (iScience, 2024)

Test system: 356 CRISPRi constructs in E. coli ΔtolC-pore
Assay: CRISPRi collection fitness screen with sub-inhibitory compound
Type: cell-based
Conditions: for Growth represented as mean colony biomass: 1μg/ml MAC0452936, 6ng/ml LolCDE-in-1, 250 ng/ml Vancomycin, 7 ng/ml CHIR090, n=4; for Growth, mean colony biomass (n=4): + 7 ng/ml CHIR090
Excerpt: To that end, we screened the E. coli CRISPRi collection in the ΔtolC-pore genetic background with a sub-inhibitory concentration of MAC-0452936 and measured the fitness of all 356 CRISPRi mutants (Figure 4C and Data S4). […] To that end, we introduced either an arabinose inducible copy of lgt supplied on the pCHAP9231 plasmid[48] or the pBAD19s plasmid as a control into E. coli ΔtolC-pore and tested the potency of MAC-0452936 (Figure 4E). […] To test this hypothesis, we constructed E. coli ΔlgtΔtolC-pore with pCHAP9231[48] so that lgt expression was driven solely by arabinose from the plasmid.
For screens of the CRISPRi collection with MAC-0452936, the mobile CRISPRi collection was first conjugated into E. coli ΔtolC-pore as previously described.[30] The CRISPRi collection was then arrayed on solid agar at 1536 density using the Singer-ROTOR, such that each CRISPRi strain is arrayed in technical quadruplicate. […] The screens were conducted without CRISPRi induction, using just the 5–10% basal knockdown from the pFD152 CRISPRi plasmid. Following overnight growth, plates were imaged using high-resolution scanners (Epson Perfection v750), and colony biomass for each mutant was determined.

[1] = sub-inhibitory (¼ MIC) concentration, LB agar, basal knockdown

C[C@@H](O)[C@H](NC(=O)c1ccc(C#Cc2ccc(CN3CCOCC3)cc2)cc1)C(=O)NO [CHIR090]
Growth represented as mean colony biomass (gRNA accA): 0.9728 | Growth, mean colony biomass (n=4) (gRNA aceF): 1.1 | Growth, mean colony biomass (n=4) (gRNA alaS): 1.087 | Growth, mean colony biomass (n=4) (gRNA argS): 1.119 | Growth, mean colony biomass (n=4) (gRNA asnS): 1.015 | Growth, mean colony biomass (n=4) (gRNA bamA): 1.043 | Growth, mean colony biomass (n=4) (gRNA bamD): 1.088 | Growth, mean colony biomass (n=4) (gRNA bioA): 1.01 | Growth, mean colony biomass (n=4) (gRNA can): 1.059 | Growth represented as mean colony biomass (gRNA cca): 0.9249 | Growth represented as mean colony biomass (gRNA coaA): 0.8479 | Growth, mean colony biomass (n=4) (gRNA csrA): 1.056 | Growth represented as mean colony biomass (gRNA cydA): 1.062 | Growth represented as mean colony biomass (gRNA cydX): 1.061 | Growth represented as mean colony biomass (gRNA dapD): 0.9522 | Growth represented as mean colony biomass (gRNA dapE): 1.007 | Growth represented as mean colony biomass (gRNA der): 0.9768 | Growth represented as mean colony biomass (gRNA dfp): 0.8989 | Growth, mean colony biomass (n=4) (gRNA dnaC): 1.065 | Growth represented as mean colony biomass (gRNA dnaE): 1.058 | Growth represented as mean colony biomass (gRNA dnaN): 1.037 | Growth represented as mean colony biomass (gRNA dnaX): 0.9219 | Growth, mean colony biomass (n=4) (gRNA dut): 0.9955 | Growth represented as mean colony biomass (gRNA eno): 0.9728 | Growth represented as mean colony biomass (gRNA era): 1.02 | Growth represented as mean colony biomass (gRNA fabA): 0.9775 | Growth represented as mean colony biomass (gRNA fabG): 1.01 | Growth represented as mean colony biomass (gRNA fabI): 0.9675 | Growth represented as mean colony biomass (gRNA fdx): 0.979 | Growth represented as mean colony biomass (gRNA fldA): 1.057 | Growth, mean colony biomass (n=4) (gRNA folA): 0.9636 | Growth represented as mean colony biomass (gRNA folB): 1.017 | Growth, mean colony biomass (n=4) (gRNA folC): 1.012 | Growth represented as mean colony biomass (gRNA folE): 0.9169 | Growth represented as mean colony biomass (gRNA folP): 0.9924 | Growth represented as mean colony biomass (gRNA frr): 0.9411 | Growth, mean colony biomass (n=4) (gRNA ftsA): 0.9154 | Growth represented as mean colony biomass (gRNA gapA): 0.9821 | Growth, mean colony biomass (n=4) (gRNA glmS): 1.055 | Growth represented as mean colony biomass (gRNA glmU): 1.014 | Growth represented as mean colony biomass (gRNA gltX): 0.9512 | Growth, mean colony biomass (n=4) (gRNA glyA): 1.052 | Growth represented as mean colony biomass (gRNA groS): 0.9583 | Growth represented as mean colony biomass (gRNA grpE): 1.032 | Growth represented as mean colony biomass (gRNA guaA): 0.9865 | Growth, mean colony biomass (n=4) (gRNA hemD): 1.036 | Growth represented as mean colony biomass (gRNA hemG): 0.9689 | Growth represented as mean colony biomass (gRNA hemH): 0.992 | Growth represented as mean colony biomass (gRNA hemL): 0.9608 | Growth represented as mean colony biomass (gRNA higA): 1.023 | Growth represented as mean colony biomass (gRNA hisS): 0.9896 | Growth represented as mean colony biomass (gRNA holD): 0.9599 | Growth represented as mean colony biomass (gRNA hscA): 0.9776 | Growth, mean colony biomass (n=4) (gRNA infA): 1.073 | Growth represented as mean colony biomass (gRNA infC): 1.06 | Growth represented as mean colony biomass (gRNA iscU): 0.9911 | Growth represented as mean colony biomass (gRNA ispB): 0.9696 | Growth represented as mean colony biomass (gRNA ispF): 0.9551 | Growth, mean colony biomass (n=4) (gRNA leuS): 1.366 | Growth, mean colony biomass (n=4) (gRNA lexA): 1.376 | Growth represented as mean colony biomass (gRNA lolC): 0.8957 | Growth, mean colony biomass (n=4) (gRNA lptA): 1.212 | Growth, mean colony biomass (n=4) (gRNA lptB): 1.0261 | Growth represented as mean colony biomass (gRNA lptC): 1.089 | Growth represented as mean colony biomass (gRNA lptE): 1.06 | Growth represented as mean colony biomass (gRNA lptF): 1.019 | Growth represented as mean colony biomass (gRNA lptG): 1.007 | Growth represented as mean colony biomass (gRNA lpxC): 0.3105 | Growth represented as mean colony biomass (gRNA lpxD): 1.005 | Growth, mean colony biomass (n=4) (gRNA mnmA): 1.028 | Growth, mean colony biomass (n=4) (gRNA mrdB): 0.9292 | Growth represented as mean colony biomass (gRNA mreB): 0.9175 | Growth represented as mean colony biomass (gRNA mreC): 0.8842 | Growth, mean colony biomass (n=4) (gRNA msbA): 1.129 | Growth, mean colony biomass (n=4) (gRNA mukF): 0.98 | Growth represented as mean colony biomass (gRNA murB): 1.054 | Growth represented as mean colony biomass (gRNA murC): 0.9542 | Growth, mean colony biomass (n=4) (gRNA murI): 1.202 | Growth, mean colony biomass (n=4) (gRNA nadK): 1.005 | Growth represented as mean colony biomass (gRNA nusB): 1.054 | Growth represented as mean colony biomass (gRNA plsB): 0.9093 | Growth, mean colony biomass (n=4) (gRNA prmC): 0.9966 | Growth represented as mean colony biomass (gRNA proS): 0.9867 | Growth, mean colony biomass (n=4) (gRNA psd): 1.319 | Growth, mean colony biomass (n=4) (gRNA pssA): 0.939 | Growth, mean colony biomass (n=4) (gRNA ptsI): 1.093 | Growth represented as mean colony biomass (gRNA racR): 0.9688 | Growth, mean colony biomass (n=4) (gRNA rho): 0.9866 | Growth represented as mean colony biomass (gRNA ribA): 0.9235 | Growth represented as mean colony biomass (gRNA ribC): 0.9738 | Growth, mean colony biomass (n=4) (gRNA ribD): 1.097 | Growth represented as mean colony biomass (gRNA ribF): 0.9595 | Growth represented as mean colony biomass (gRNA rimM): 0.9147 | Growth represented as mean colony biomass (gRNA rluD): 1.0007 | Growth, mean colony biomass (n=4) (gRNA rne): 1.043 | Growth represented as mean colony biomass (gRNA rpe): 1.042 | Growth, mean colony biomass (n=4) (gRNA rplA): 0.9782 | Growth represented as mean colony biomass (gRNA rplD): 0.927 | Growth represented as mean colony biomass (gRNA rplE): 1.02 | Growth represented as mean colony biomass (gRNA rplJ): 0.8734 | Growth represented as mean colony biomass (gRNA rplO): 0.8878 | Growth, mean colony biomass (n=4) (gRNA rplP): 1.09 | Growth represented as mean colony biomass (gRNA rplQ): 1.099 | Growth represented as mean colony biomass (gRNA rplS): 0.9537 | Growth, mean colony biomass (n=4) (gRNA rplV): 1.004 | Growth, mean colony biomass (n=4) (gRNA rplX): 1.052 | Growth represented as mean colony biomass (gRNA rplY): 1.0779 | Growth, mean colony biomass (n=4) (gRNA rpmC): 0.9906 | Growth represented as mean colony biomass (gRNA rpmH): 1.001 | Growth represented as mean colony biomass (gRNA rpmI): 0.9513 | Growth, mean colony biomass (n=4) (gRNA rpoC): 1.121 | Growth, mean colony biomass (n=4) (gRNA rpoE): 1.013 | Growth represented as mean colony biomass (gRNA rpoH): 1.038 | Growth, mean colony biomass (n=4) (gRNA rpsC): 1.084 | Growth, mean colony biomass (n=4) (gRNA rpsD): 1.134 | Growth represented as mean colony biomass (gRNA rpsE): 0.9264 | Growth represented as mean colony biomass (gRNA rpsF): 1.096 | Growth, mean colony biomass (n=4) (gRNA rpsG): 0.9816 | Growth represented as mean colony biomass (gRNA rpsH): 0.9044 | Growth, mean colony biomass (n=4) (gRNA rpsK): 1.022 | Growth, mean colony biomass (n=4) (gRNA rpsL): 1.049 | Growth, mean colony biomass (n=4) (gRNA rpsM): 0.9866 | Growth, mean colony biomass (n=4) (gRNA rpsR): 1.0423 | Growth, mean colony biomass (n=4) (gRNA rpsT): 0.8858 | Growth represented as mean colony biomass (gRNA rsgA): 0.9517 | Growth represented as mean colony biomass (gRNA safA): 1.0001 | Growth, mean colony biomass (n=4) (gRNA secA): 1.136 | Growth represented as mean colony biomass (gRNA secY): 1.007 | Growth represented as mean colony biomass (gRNA serS): 1.071 | Growth represented as mean colony biomass (gRNA ssb): 1.053 | Growth represented as mean colony biomass (gRNA sucA): 0.9406 | Growth, mean colony biomass (n=4) (gRNA suhB): 1.008 | Growth represented as mean colony biomass (gRNA tilS): 1.04 | Growth represented as mean colony biomass (gRNA tonB): 0.9801 | Growth represented as mean colony biomass (gRNA trmD): 0.9934 | Growth represented as mean colony biomass (gRNA tsaB): 1.008 | Growth represented as mean colony biomass (gRNA tsaD): 0.9494 | Growth, mean colony biomass (n=4) (gRNA tsaE): 1.05 | Growth represented as mean colony biomass (gRNA tsf): 1.069 | Growth represented as mean colony biomass (gRNA tusE): 1.0146 | Growth represented as mean colony biomass (gRNA tyrS): 0.993 | Growth represented as mean colony biomass (gRNA ubiB): 0.9982 | Growth represented as mean colony biomass (gRNA ubiD): 0.963 | Growth, mean colony biomass (n=4) (gRNA waaA): 1.006 | Growth represented as mean colony biomass (gRNA ydaS): 0.976 | Growth represented as mean colony biomass (gRNA ydcD): 0.9913 | Growth represented as mean colony biomass (gRNA ydhL): 0.9285 | Growth, mean colony biomass (n=4) (gRNA yedN): 0.9909 | Growth represented as mean colony biomass (gRNA yejM): 0.9171 | Growth represented as mean colony biomass (gRNA yffS): 1.036 | Growth represented as mean colony biomass (gRNA ygeF): 1.069 | Growth, mean colony biomass (n=4) (gRNA ygeN): 0.9546 | Growth represented as mean colony biomass (gRNA yidC): 0.9824 | Growth represented as mean colony biomass (gRNA ymfE): 0.9789 | Growth represented as mean colony biomass (gRNA ymiB): 1.048 | Growth, mean colony biomass (n=4) (gRNA yqeL): 1.42 | Growth represented as mean colony biomass (gRNA yqgF): 1.058 | Growth, mean colony biomass (n=4) (gRNA zipA): 1.877 | growth defect of CRISPRi strains for the compound's molecular target (LolCDE complex and LpxC, respectively) [1]: strongest growth defect | growth defect of the lgt CRISPRi mutant in the presence of compound [1]: did not demonstrate a growth defect
